Assay results taken from patent US10772917B2, “Pancreatic endocrine progenitor cell therapies for the treatment of obesity and type 2 diabetes (T2D)” (THE UNIVERSITY OF BRITISH COLUMBIA, priority 2015, dated 2020).

Tests used:
HFD-fed mice [1] = assay: Mouse and human C-peptide after intraperitoneal glucose challenge (Example 6); format: in vivo, mouse (SCID-beige); conditions: drug plus cell transplant vs respective sham controls; for reduction of fasting mouse C-peptide levels: 4 weeks post-transplant; for fasting mouse C-peptide levels: 16 weeks post-transplant
Source text: (§1) The procedure used for transplantation of macro-encapsulated pancreatic progenitor cells was as follows. Similar transplantation of macro-encapsulated pancreatic endocrine precursor cells or insulin-producing cells was described in Rezania et al. 2014, Pagliucca et al. 2014 and Agulnick A. D. et al. 2015. All mice were anaesthetized with inhalable isoflurane and transplant recipients received ˜5×10^6 hESC-derived pancreatic progenitor cells subcutaneously (s.c.) within a 20 1 TheraCyte™ macroencapsulation device (TheraCyte Inc.™, Laguna Hills, Calif.) on the right flank, as previously described (Bruin et al., 2013). Sham mice received the same surgical procedure, but no macroencapsulation device was implanted. In the first cohort, mice were randomly assigned to receive either a cell transplant (Tx, n=7 per diet) or sham surgery (sham, n=4 per diet) after 7 weeks of LFD or HFD feeding. In the second cohort, HFD-fed mice (+/−drug treatment) received either a transplant (n=8 per group) or sham surgery (n=8 per group) 1 week after administration of the antidiabetic drugs. LFD controls all received sham surgery.
(§2) Glucose tolerance tests (GTTs) were performed following a 6-hour morning fast and administration of glucose by oral gavage or intraperitoneal (i.p.) injection (2 glucose/kg BW, 30% solution; Vétoquinol™, Lavaltrie, QC). Glucose-stimulated human C-peptide secretion from engrafted cells was assessed following an overnight fast and an i.p. injection of glucose (2 g/kg). Insulin tolerance tests (ITTs) were performed following a 4-hour morning fast and administration of human synthetic insulin (0.7 IU/kg body weight; Novolin Ge™ Toronto, Novo Nordisk™, Mississaugua, Canada). […] Blood glucose levels were measured using a handheld glucometer (Lifescan™; Burnaby, Canada). Mouse hormone and lipid profiles were assessed in plasma using the following kits: leptin (Mouse Leptin ELISA, Crystal ChemInc.™, Downers Grove, Ill.), insulin (Ultrasensitive Mouse Insulin ELISA, Alpco Diagnostics™, Salem, N.H.), C-peptide (Mouse C-peptide ELISA, Alpco Diagnostics™), triglycerides (Serum Triglyceride kit, Sigma-Aldrich™), free fatty acids (NEFA-HR(2) kit, Wako Chemical™, Richmond, Va.) and cholesterol (Cholesterol E™ kit, Wako Chemical™). Hormone secretion from engrafted hESC-derived cells was assessed by measuring plasma human C-peptide (C-peptide ELISA, 80-CPTHU-E01.1; Alpco Diagnostics™) and human insulin and glucagon levels (K15160C-2; Meso Scale Discovery™, Gaithersburg, Md.). Hemoglobin A1c (HbA1c) levels were measured with a Siemens DCA 200 Vantage Analyzer™ (Siemens Healthcare Diagnostics™, Tarrytown, N.Y.) from whole blood collected from the saphenous vein with EDTA as an anticoagulant. […]

HFD-fed mice [2] = assay: Body weight, epididymal fat pad weight and leptin in 60% fat diet mice given antidiabetic drug with or without cell transplant (Example 6); format: in vivo, mouse (SCID-beige); conditions: for circulating leptin levels: 60% fat diet, drug combined with cell transplant vs respective sham controls on the same drug, 20 weeks post-transplant
Source text: Male SCID-beige mice (C.B-Igh-1b/GbmsTac-Prkdcscid-LystbgN7, 8-10 weeks old; Taconic™) were maintained on a 12 hr light/dark cycle throughout the study. All experiments were approved by the UBC Animal Care Committee and carried out in accordance with the Canadian Council on Animal Care guidelines.
(§3) In the second cohort, mice were placed on either the 10% fat control diet (D12450K; n=8) for the duration of the study of 60% fat diet (D12492; n=64) for 6 weeks, followed by one of the following treatment regimens for the remainder of the study (n=16 per group): (1) 60% fat diet with no drug (D12492), (2) 60% fat diet containing rosiglitazone (18 mg/kg diet or ˜3 mg/kg BW per day; Cayman Chemical™; Research Diets™ custom diet formulation D08121002), (3) 60% fat diet containing sitagliptin (4 g/kg diet or ˜750 mg/kg BW per day; sitagliptin phosphate monohydrate, BioVision™; Research Diets™ custom diet formulation D08062502R), or (4) 60% fat diet (D12492) and metformin (1,1-dimethylbiguanide hydrochloride) in drinking water (1.25 mg/ml or ˜250 mg/kg BW per day).
as §1, with “In the second cohort, HFD-fed mice (+/−drug treatment) received either a transplant (n=8 per group) or sham surgery (n=8 per group) 1 week after administration of the antidiabetic drugs. LFD controls all received sham surgery.” left out
All metabolic analyses were performed in conscious, restrained mice and blood samples were collected via the saphenous vein. BW and blood glucose levels were assessed regularly throughout each study following a 4-hr morning fast. […]
Glucose tolerance tests (GTTs) were performed following a 6-hour morning fast and administration of glucose by oral gavage or intraperitoneal (i.p.) injection (2 glucose/kg BW, 30% solution; Vétoquinol™, Lavaltrie, QC). Glucose-stimulated human C-peptide secretion from engrafted cells was assessed following an overnight fast and an i.p. injection of glucose (2 g/kg). […] Blood glucose levels were measured using a handheld glucometer (Lifescan™; Burnaby, Canada). […]

HFD-fed mice [3] = assay: Fasting blood glucose and oral glucose tolerance test in 60% fat diet mice given antidiabetic drug with or without cell transplant (Example 6); format: in vivo, mouse (SCID-beige); conditions: for glucose tolerance (oral glucose tolerance test): HFD-fed mice, cell therapy combined with the drug
Protocol: as §3, §1
All metabolic analyses were performed in conscious, restrained mice and blood samples were collected via the saphenous vein. BW and blood glucose levels were assessed regularly throughout each study following a 4-hr morning fast. For all other metabolic tests, blood was collected after fasting (time 0) and at the indicated time points following administration of various secretagogues.
as §2, with “g/kg).” for “g/kg). Insulin tolerance tests (ITTs) were performed following a 4-hour morning fast and administration of human synthetic insulin (0.7 IU/kg body weight; Novolin Ge™ Toronto, Novo Nordisk™, Mississaugua, Canada).”, “Md.).” for “Md.). Hemoglobin A1c (HbA1c) levels were measured with a Siemens DCA 200 Vantage Analyzer™ (Siemens Healthcare Diagnostics™, Tarrytown, N.Y.) from whole blood collected from the saphenous vein with EDTA as an anticoagulant.”

pancreatic regeneration = conditions: ductal ligation model; cited from earlier work
[4] = under the conditions tested; cited from earlier work
[5] = 12 weeks post-transplant, drug with the cell therapy

For CN(C)C(=N)NC(=N)N.Cl [metformin, 1,1-dimethylbiguanide hydrochloride], the “reduction of fasting mouse C-peptide levels” value (HFD-fed mice [1]) was “not yet evident”, the “fasting mouse C-peptide levels” value (HFD-fed mice [1]) was “significantly reduced” and the circulating leptin levels (HFD-fed mice [2]) was “significantly reduced”. For the same compound, the “glucose tolerance (oral glucose tolerance test)” value (HFD-fed mice [3]; 12 weeks post-transplant) was “significantly improved”.
With CN(CCOc1ccc(CC2SC(=O)NC2=O)cc1)c1ccccn1 (stereo not shown) [rosiglitazone] the circulating leptin levels (HFD-fed mice [2]) was “no effect”.
For N[C@@H](CC(=O)N1CCn2c(nnc2C(F)(F)F)C1)Cc1cc(F)c(F)cc1F [sitagliptin, sitagliptin phosphate monohydrate], the “reduction of fasting mouse C-peptide levels” value (HFD-fed mice [1]) was “not yet evident”, the “fasting mouse C-peptide levels” value (HFD-fed mice [1]) was “significantly reduced” and the circulating leptin levels (HFD-fed mice [2]) was “significantly reduced”. The weight loss (HFD-fed mice [2]; cells transplanted in combination with the drug, compared with other groups) was “the most weight loss was observed”, the “glucose tolerance (oral glucose tolerance test)” value (HFD-fed mice [3]; 12 weeks post-transplant) was “significantly improved” and the “glycemic control during an oral glucose challenge compared with LFD controls” value (HFD-fed mice [3]; [5]) was “indistinguishable”. The “peak glucose level at 15 minutes post-gavage compared with LFD controls” value (HFD-fed mice [3]; [5]) was “marginally higher” and the glucose tolerance (HFD-fed mice [3]; drug on its own, without cell transplant) was “mild reduction in glucose tolerance”.
For C=CC[C@@H]1/C=C(\C)C[C@H](C)C[C@H](OC)[C@H]2O[C@@](O)(C(=O)C(=O)N3CCCC[C@H]3C(=O)O[C@H](/C(C)=C/[C@@H]3CC[C@@H](O)[C@H](OC)C3)[C@H](C)[C@@H](O)CC1=O)[C@H](C)C[C@@H]2OC [tacrolimus], the pancreatic regeneration (pancreatic regeneration) is listed as “block pancreatic regeneration”.
For “exendin-4: anti-diabetic medicine examined earlier for short term effect (Bruin et al. 2013)”, the short term effect [4] is given as “without significant effect”.
For “insulin: anti-diabetic medicine examined earlier for short term effect (Bruin et al. 2013)”, the short term effect [4] is given as “without significant effect”.
